According to patent US9597407B2, “Targeted antimicrobial moieties” (C3 Jian, Inc., priority 2009, dated 2017):
Entries after “also recorded” stand apart in the source; their conditions may differ. Ends that are not written are not given here.

Key:
bacteria = test: Binding of targeting peptides to microorganisms (Table 3); conditions: peptide binding in aqueous buffers that varied depending on peptide solubility; preferably 1x PBS
microorganisms = test: Morphology, biofilm and growth disruption by peptides (Table 5); assay type: cell-based; design: key: A: Peptide aggregates; B: Less hyphal formation; Clumps; Diffuse clumps and small polyps; F: Diffuse growth; H: Thin; I: Growth inhibition; Microcolony formation; Rippled; Small polyps; Thick; W: Halo formation on top, microlonies on bottom
Excerpt: In certain embodiments peptides that induce alterations in phenotype or other biological activities can also be used as antimicrobial effector moieties.

Row | Substance | Target(s) (microorganism bound by the targeting peptide) (bacteria) | Organism, effect (morphology, biofilm and growth disruption) (microorganisms; S. mutans) | Organism, effect (morphology, biofilm and growth disruption) (microorganisms; F. nucleatum) | other results
1 | PF-702 (chain 1 LSGRLAGRR; chain 2 LSGRLAGRR; Peptide with targeting and/or antimicrobial activity) | Mycobacteria spp |  |  | Organism, effect (morphology, biofilm and growth disruption) (microorganisms; S. pneumoniae): S. pneumoniae (H)
2 | PF-704 (chain 1 APAARAAL; chain 2 APAARAAL; Peptide with targeting and/or antimicrobial activity) | Mycobacteria spp |  |  | Organism, effect (morphology, biofilm and growth disruption) (microorganisms; S. pneumoniae): S. pneumoniae (C)
3 | PF-776 (VSILLYLSATIILPNVLRLLVARAIIVRV; Peptide with targeting and/or antimicrobial activity) | S. epidermidis and M. luteus and P. mirabilis and C. albicans and MRSA and S. pneumoniae and E. faecalis | S. mutans (D) |  | Organism, effect (morphology, biofilm and growth disruption) (microorganisms; E. coli): E. coli (C); Organism, effect (morphology, biofilm and growth disruption) (microorganisms; M. luteus): M. luteus (C); Organism, effect (morphology, biofilm and growth disruption) (microorganisms; MRSA): MRSA (D); Organism, effect (morphology, biofilm and growth disruption) (microorganisms; S. epidermidis): S. epidermidis (D); Organism, effect (morphology, biofilm and growth disruption) (microorganisms; S. pneumoniae): S. pneumoniae (C)
4 | PF-C052 (SRFRNGV; Peptide with targeting and/or antimicrobial activity) | A. naeslundii; also recorded: F. nucleatum; also recorded: S. mutans |  |  | Organism, effect (morphology, biofilm and growth disruption) (microorganisms; P. gingivalis): P. gingivalis (H)
5 | PF-C055 (YNLSIYIYFLHTITIAGLITLPFII; Peptide with targeting and/or antimicrobial activity) | A. naeslundii; also recorded: F. nucleatum; also recorded: P. gingivalis; also recorded: S. mutans | S. mutans (I) | F. nucleatum (T) | 
6 | PF-C057 (YFWWYWVQDCIPYKNNEVWLELSNNMK; Peptide with targeting and/or antimicrobial activity) | A. naeslundii; also recorded: F. nucleatum; also recorded: P. gingivalis; also recorded: S. mutans | S. mutans (I) |  | 
7 | PF-C062 (PLARATEVVATLFIICSLLLYLTR; Peptide with targeting and/or antimicrobial activity) | A. naeslundii; also recorded: F. nucleatum; also recorded: P. gingivalis; also recorded: S. mutans; also recorded: T. denticola | S. mutans (I) | F. nucleatum (T) | 
8 | PF-C064 (DEEALEMGANLYAQFAIDFLNSKK; Peptide with targeting and/or antimicrobial activity) | A. naeslundii; also recorded: F. nucleatum; also recorded: P. gingivalis; also recorded: S. mutans; also recorded: T. denticola |  | F. nucleatum (T) | 
9 | PF-C069 (NALMLREMQLAKNIKVEVTDVLSNKKYC; Peptide with targeting and/or antimicrobial activity) | A. naeslundii; also recorded: F. nucleatum; also recorded: P. gingivalis; also recorded: S. mutans; also recorded: T. denticola |  | F. nucleatum (T) | 
10 | PF-C071 (QVIVKIL; Peptide with targeting and/or antimicrobial activity) | A. naeslundii; also recorded: F. nucleatum; also recorded: S. mutans |  | F. nucleatum (T) | 
11 | PF-C075 (KALVISVFAIVFSIIFVKFFYWRDKK; Peptide with targeting and/or antimicrobial activity) | A. naeslundii; also recorded: F. nucleatum; also recorded: P. gingivalis; also recorded: S. mutans; also recorded: T. denticola | S. mutans (F) | F. nucleatum (T) | Organism, effect (morphology, biofilm and growth disruption) (microorganisms; P. gingivalis): P. gingivalis (R)
12 | PF-C084 (FFSVIFLFGLNYLICNSPLFNILR; Peptide with targeting and/or antimicrobial activity) | A. naeslundii; also recorded: F. nucleatum; also recorded: P. gingivalis; also recorded: S. mutans | S. mutans (F) | F. nucleatum (T) | Organism, effect (morphology, biofilm and growth disruption) (microorganisms; P. gingivalis): P. gingivalis (R)
13 | PF-C088 (DIANNILNSVSERLIIA; Peptide with targeting and/or antimicrobial activity) | A. naeslundii; also recorded: F. nucleatum; also recorded: P. gingivalis; also recorded: S. mutans; also recorded: T. denticola | S. mutans (I) | F. nucleatum (H) | Organism, effect (morphology, biofilm and growth disruption) (microorganisms; P. gingivalis): P. gingivalis (R)
14 | PF-C091 (ASNTPRFVRLTLFNFYSKIWNVTHLFLFNNL; Peptide with targeting and/or antimicrobial activity) | A. naeslundii; also recorded: F. nucleatum; also recorded: P. gingivalis; also recorded: S. mutans; also recorded: T. denticola |  | F. nucleatum (T) | 
15 | PF-C120 (ASLSTMTFKVMELKELIILLCGLTMLMIQTEFV; Peptide with targeting and/or antimicrobial activity) | A. naeslundii; also recorded: F. nucleatum; also recorded: P. gingivalis; also recorded: S. mutans; also recorded: T. denticola |  | F. nucleatum (T) | 
16 | PF-C131 (QWIVAKREIRMHIYCHISVIHVIIFFG; Peptide with targeting and/or antimicrobial activity) | A. naeslundii; also recorded: F. nucleatum; also recorded: P. gingivalis; also recorded: S. mutans | S. mutans (F) | F. nucleatum (T) | 
17 | PF-C136 (LILSYQASVYPLFAYLCQQKDY; Peptide with targeting and/or antimicrobial activity) | A. naeslundii; also recorded: F. nucleatum; also recorded: P. gingivalis; also recorded: S. mutans; also recorded: T. denticola |  | F. nucleatum (C) | Organism, effect (morphology, biofilm and growth disruption) (microorganisms; P. gingivalis): P. gingivalis (R)
18 | PF-C137 (QRMYWFKRGFETGDFSAGDTFAELK; Peptide with targeting and/or antimicrobial activity) | A. naeslundii; also recorded: F. nucleatum; also recorded: P. gingivalis; also recorded: S. mutans |  | F. nucleatum (T) | 
19 | PF-C139 (LLASHPERLSLGVFFVYRVLHLLLENT; Peptide with targeting and/or antimicrobial activity) | A. naeslundii; also recorded: F. nucleatum; also recorded: P. gingivalis; also recorded: S. mutans; also recorded: T. denticola | S. mutans (F) |  | 
20 | PF-C142 (DFPPLSFFRRRFHAYTAPIDNFFGANPF; Peptide with targeting and/or antimicrobial activity) | A. naeslundii; also recorded: F. nucleatum; also recorded: P. gingivalis; also recorded: S. mutans; also recorded: T. denticola | S. mutans (I) |  | 
21 | PF-C143 (VVFGGGDRLV; Peptide with targeting and/or antimicrobial activity) | A. naeslundii; also recorded: F. nucleatum; also recorded: P. gingivalis; also recorded: S. mutans; also recorded: T. denticola |  | F. nucleatum (C) | 
22 | PF-C145 (YGKESDP; Peptide with targeting and/or antimicrobial activity) | A. naeslundii; also recorded: F. nucleatum; also recorded: P. gingivalis; also recorded: S. mutans; also recorded: T. denticola | S. mutans (I) | F. nucleatum (C) | 
23 | PF-C180 (TVEELDKAFTWGAAAALAIGVIAINVGLAAGYCYNNNDVF; Peptide with targeting and/or antimicrobial activity) | F. nucleatum; also recorded: P. gingivalis; also recorded: S. mutans; also recorded: T. denticola | S. mutans (S) |  | Organism, effect (morphology, biofilm and growth disruption) (microorganisms; P. gingivalis): P. gingivalis (R)
24 | PF-C181 (KMRAGQVVFIYKLILVLLFYVLQKLFDLKKGCF; Peptide with targeting and/or antimicrobial activity) | P. gingivalis |  | F. nucleatum (T) | 
25 | PF-C291 (HPFLTGTGCPLFLIFRLFFVKAYFSFTVF; Peptide with targeting and/or antimicrobial activity) | A. naeslundii; also recorded: F. nucleatum; also recorded: P. gingivalis; also recorded: S. mutans | S. mutans (F) | F. nucleatum (T) | 
26 | RESKLIAMADMIRRRI-NH2 [PF-545] |  |  |  | Target(s) (microorganisms bound by the targeting peptide) (bacteria): S. epidermidis; also recorded: E. coli; also recorded: P. aeruginosa; also recorded: S. pneumoniae; also recorded: E. faecalis; also recorded: C. jeikeium; Organism, effect (morphology, biofilm and growth disruption) (microorganisms; B. subtilis): B. subtilis (I); Organism, effect (morphology, biofilm and growth disruption) (microorganisms; C. albicans): C. albicans (B); Organism, effect (morphology, biofilm and growth disruption) (microorganisms; C. jeikeium): C. jeikeium (H); Organism, effect (morphology, biofilm and growth disruption) (microorganisms; E. faecalis): E. faecalis (H)
27 | SFMPEIQKNTIPTQMK [PF-512] |  |  |  | Target(s) (microorganisms bound by the targeting peptide) (bacteria): S. pneumoniae; also recorded: C. jeikeium; Organism, effect (morphology, biofilm and growth disruption) (microorganisms; S. pneumoniae): S. pneumoniae (H)
